Experimental data from ChEMBL document CHEMBL1201862, “PubChem BioAssay data set” (2004).
Activity calls are given as the source filed them.

Key:
Transthyretin = Transthyretin (Homo sapiens, UniProt P02766); assay: Luminescence-based cell-based high throughput dose response assay to identify activators of Transthyretin (TTR) transcription.; type: functional
[1] = IOSE-T80 ovarian epithelial cell cytotoxicity, dose response, cytotoxicity control for PAX8 inhibitor project, plate reader, dry powder samples (AID 743045); type: functional, cell-based
[2] = PAX2 cell-based inhibition, dose response, selectivity assay for PAX8 inhibitor project, plate reader, dry powder samples (AID 743048); type: functional;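 also: HEK293 cells carrying a WT1 promoter luciferase reporter driven by expressed Pax2; potency is for inhibition of Pax2 driven reporter signal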
Paired box protein Pax-8 = Paired box protein Pax-8 (Homo sapiens, UniProt Q06710); assay: inhibitors of PAX8-driven TPO luciferase reporter, dose response, RMG-I cells, cherry-pick (AID 687027); type: functional, cell-based;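 also: luciferase reporter driven by Pax8 target thyroperoxidase promoter measured by SteadyGlo luminescence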
Paired box protein Pax-8, sequence (Q06710 whole entry): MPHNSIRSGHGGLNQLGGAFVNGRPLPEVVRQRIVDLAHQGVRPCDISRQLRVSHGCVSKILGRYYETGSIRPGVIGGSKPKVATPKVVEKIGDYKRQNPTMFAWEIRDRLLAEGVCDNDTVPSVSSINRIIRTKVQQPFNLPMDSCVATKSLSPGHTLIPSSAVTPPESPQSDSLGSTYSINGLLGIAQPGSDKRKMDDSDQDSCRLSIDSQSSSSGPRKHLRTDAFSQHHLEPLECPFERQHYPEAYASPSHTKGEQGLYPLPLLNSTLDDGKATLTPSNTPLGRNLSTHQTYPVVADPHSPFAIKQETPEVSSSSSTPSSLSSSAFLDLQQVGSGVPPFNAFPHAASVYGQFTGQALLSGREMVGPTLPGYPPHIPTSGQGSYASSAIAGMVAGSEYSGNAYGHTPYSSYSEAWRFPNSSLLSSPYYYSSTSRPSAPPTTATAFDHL

[3] = cytotoxicity in COV362 ovarian cancer cells, dose response, cytotoxicity control for PAX8 inhibitor project, cell-based, plate reader, dry powder, SA12 (AID 743144); type: functional
[4] = IGROV1 ovarian cancer cell cytotoxicity, dose response, PAX8 inhibitor project, plate reader, dry powder samples (AID 743043); type: functional, cell-based; details: IGROV-1
[5] = non-specific cell cytotoxicity, dose response, cytotoxicity control for PAX8 inhibitor project, plate reader, dry powder samples (AID 743021); type: functional, cell-based
[6] = PAX5 activity inhibitors, dose response, selectivity assay for PAX8 inhibitor project, cell-based, plate reader, dry powder samples (AID 743047); type: functional;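 also: HEK293 cells carrying a Pax5 driven CD19 promoter luciferase reporter; potency of inhibitors that lower reporter luminescence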
[7] = cytotoxicity in OVCAR4 cells, dose response, cytotoxicity control for PAX8 inhibitor project, cell-based, plate reader, dry powder, SA11 (AID 743150); type: functional; details: OVCAR-4
[8] = cytotoxicity in OV-90 ovarian cancer cells, dose response, PAX8 inhibitor project, cell-based, plate reader, dry powder, SA8 (AID 743149); type: functional
[9] = cytotoxicity in COV434 cells, dose response, cytotoxicity control for PAX8 inhibitor project, cell-based, plate reader, dry powder, SA7 (AID 743145); type: functional
[10] = cytotoxicity dependent on PAX8, dose response, cell-based, plate reader, dry powder (AID 743049); type: functional
[11] = cytotoxicity toward HCT116 cells – cell-based, CellTiter-Glo luminescence, IC50, dose response (AID 1117332); type: functional; details: HCT-116
[12] = CellTiter-Glo luminescent dose response of DLD-1 viability loss (AID 1117352); type: functional
[13] = SNU-C1 cell viability reduction, dose response, CellTiter-Glo luminescence (AID 1117323); type: functional, cell-based
[14] = cytotoxicity toward HT-29 cells – cell-based, CellTiter-Glo luminescence, IC50, dose response (AID 1117330); type: functional
[15] = HCT116 cell viability decrease, GSK3B pretreatment – CellTiter-Glo, IC50, dose response (AID 1117339); type: functional; details: HCT-116
[16] = cytotoxicity toward Colo320 cells – cell-based, CellTiter-Glo luminescence, IC50, dose response (AID 1117334); type: functional; details: COLO 320
[17] = Concentration-dependent survival of SW480 colon cancer line, luminescence detection with CellTiter-Glo, half-maximal inhibitory concentration (AID 1117338); type: functional
[18] = RKO cell viability reduction, dose response, CellTiter-Glo luminescence (AID 1117322); type: functional
[19] = P. falciparum 3D7-ScDHODH growth inhibitors, dose response, SYBR Green, dry powder samples (AID 1159570); type: functional, cell-based;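 also: parasite growth measured after 72 hours of compound exposure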
[20] = Plasmodium falciparum Dd2 Sybr green parasite growth Measured in Cell-Based and Microorganism Combination System Using Plate Reader - 2153-01_Inhibitor_Dose_DryPowder_Activity_Set10.; type: functional
[21] = P. falciparum Dd2 growth inhibitors, dose response, SYBR Green, dry powder samples (AID 1159566); type: functional, cell-based;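 also: potency for growth inhibition with lower SYBR green DNA signal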
[22] = P. falciparum Dd2 growth inhibitors, dose response, SYBR Green, cherry-picked samples (AID 1159567); type: functional, cell-based
[23] = P. falciparum ATP4 D1247Y mutant growth inhibitors, dose response, NITD609-resistant line, SYBR Green, dry powder (AID 1159571); type: functional, cell-based;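 also: parasites synchronized at ring stage by sorbitol before testing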
[24] = HepG2 cell cytotoxicity, dose response, cytotoxicity control, plate reader, dry powder samples (AID 1159569); type: functional, cell-based;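 also: inhibitor potency with signal falling toward the positive control level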
[25] = P. falciparum Dd2 growth inhibitors, dose response, SYBR Green, dry powder samples, set 9 (AID 1159568); type: functional, cell-based
ELAV-like protein 1 = ELAV-like protein 1 (Homo sapiens, UniProt Q15717); assay: Identify HuR specific inhibitors.; type: functional
ELAV-like protein 1, sequence (Q15717 whole entry): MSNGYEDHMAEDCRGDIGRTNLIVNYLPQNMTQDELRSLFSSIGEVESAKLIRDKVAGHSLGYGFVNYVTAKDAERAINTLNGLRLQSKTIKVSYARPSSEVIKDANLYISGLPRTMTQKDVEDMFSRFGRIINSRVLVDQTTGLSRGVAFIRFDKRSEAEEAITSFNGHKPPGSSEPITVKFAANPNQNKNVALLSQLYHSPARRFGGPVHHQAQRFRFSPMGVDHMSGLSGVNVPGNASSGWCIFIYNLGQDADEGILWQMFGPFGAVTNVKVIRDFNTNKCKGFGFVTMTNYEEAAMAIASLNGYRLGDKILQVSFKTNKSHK

Cn1nccc1C(=O)N1CCc2ccccc21
EC50 (Transthyretin): > 167 µM (inactive)

O=C(Nc1cccc(F)c1)N1CCCCN2[C@H](CO)[C@@H](c3ccc(C#Cc4ccccc4)cc3)[C@H]2C1
AC50 [1]: 21.2 µM (active) | AC50 [2]: 20.8 µM (active) | AC50 (Paired box protein Pax-8): 15.4 µM (active) | AC50 [3]: 17 µM (active) | AC50 [4]: 16 µM (active) | AC50 [5]: 24.4 µM (active) | AC50 [6]: 21 µM (active) | AC50 [7]: 31.1 µM (active) | AC50 [8]: 12.6 µM (active) | AC50 [9]: 11.6 µM (active) | AC50 [10]: 15.5 µM (active)

CO[C@H]1O[C@@H]2O[C@@]3(C)CC[C@H]4[C@H](C)CC[C@@H]([C@@H]1C)[C@@]24OO3
IC50 [11]: > 20 µM (inactive) | IC50 [12]: > 20 µM (inactive) | IC50 [13]: > 20 µM (inactive) | IC50 [14]: > 20 µM (inactive) | IC50 [15]: > 20 µM (inactive) | IC50 [16]: > 20 µM (inactive) | IC50 [17]: > 20 µM (inactive) | IC50 [18]: > 20 µM (inactive)

COc1ccc(-c2ccccc2[C@H]2[C@@H](C#N)N(C(=O)C3CCCC3)[C@H]2CO)cc1
AC50 [19]: 0.368 µM (active) | AC50 [20]: 1.11 µM (active) | AC50 [21]: 0.346 µM (active) | AC50 [22]: 0.479 µM (active) | AC50 [23]: 1.78 µM (active) | AC50 [24]: 63.3 µM (active)

C/C=C/c1ccc([C@H]2[C@@H](CO)N(CC3CCCCC3)[C@@H]2CNC(C)C)cc1
AC50 [19]: 0.396 µM (active) | AC50 [21]: 0.231 µM (active) | AC50 [25]: 0.316 µM (active) | AC50 [22]: 0.494 µM (active) | AC50 [23]: 0.294 µM (active) | AC50 [24]: 49.3 µM (active)

CSC1=NC(=O)/C(=N\Nc2ccc([As](=O)(O)O)cc2)C(N)=N1
IC50 (ELAV-like protein 1): 2.7 µM (inactive)
